Results on 6 molecules are retold here after patent US20250281444A1, “COMPOUND WITH NEW SKELETON OF URSANE TRITERPENOID - ENT-KAURANE DITERPENOID DIMER, AND PREPARATION METHOD THEREOF AND APPLICATION THEREOF” (NANJING UNIVERSITY OF CHINESE MEDICINE, priority 2025, published 2025).

Format in all cases: cell-based
Data set [1] has as its system liver cancer cell line HepG2. Kind of data set: cells. To be noted: for IC50: 72 hours, CCK-8, read-out: IC50 ± SD, HepG2. Here is the method:
(§1) A pancreatic cancer cell line MIA PaCa-2, a colon cancer cell line HT-29, a lung cancer cell line A549, and a liver cancer cell line HepG2 (cell bank of Chinese Academy of Sciences) were cultured in a DMEM culture solution containing 10% fetal bovine serum (Gibco Company) at 37° C. under 5% CO2. HT-29, A549 and HepG2 cell culture media were supplemented with 10% FBS and 1% PSN, and a MIA PaCa-2 cell culture medium was supplemented with 10% FBS, 2.5% HS and 1% PSN.
(§2) Different volumes of DMEM culture media were added to dilute the compounds into different concentrations. Meanwhile, a DMEM culture medium containing 0.1% DMSO was used as a negative control.
(§3) Tumor cells were suspended in a culture medium, MIA PaCa-2, HT-29 and HepG2 cells were inoculated into a 96-well plate at a cell density of 8000, A549 cells were inoculated into a 96-well plate at a cell density of 3000 (100 μL/well), and the cells were cultured at 37° C. under 5% CO2 for 24 hours. In a logarithmic growth phase of the tumor cell lines, different concentrations of compounds (0, 0.004, 0.04, 0.4, 4, and 40 μM) were added to culture the cells at 37° C. under 5% CO2 for 72 hours.
(§4) After 72 hours of interaction between the drugs and the tumor cells, 10 μL of CCK-8 solution was added into each well to incubate the cells in a sterile incubator for 1 hour, and then the solution was taken out to determine an OD value by a microplate reader at a wavelength of 450 nm. IC50 (median inhibitory concentration) values of the compounds were calculated by GraphPad Prism 8 software, and 5-FU and Carboplatin were used as positive controls.

The test system of data set [2] is colon cancer cell line HT-29. Put plainly: cells. To be noted: for IC50: 72 hours, CCK-8, read-out: IC50 ± SD, HT-29. Here is the method: as §1, §2, §3, §4
The subject of the next data set is Candida albicans SC5314. Put plainly: MIC, compound 1 alone and combined with amphotericin B. The text has this: (§5) Helicobacter pylori (G27 and HP129) and Candida albicans (SC5314 and C5) both came from Professor Hongkai Bi's laboratory of Nanjing Medical University. Main culture mediums and main reagents: Colombian culture medium, LB culture medium, selective antibiotics (metronidazole and amphotericin B), serum, and the like.
(§6) LB culture medium: 15 g/L glucose, 10 g/L yeast extract, 5 g/L peptone, and 10 g/L sodium chloride.
(§7) (1) Sample solutions of the compounds 1 and 2 prepared in Embodiment 1 were configured to have a concentration of 2 mg/mL.
(§8) (2) In preparation by a MIC plate, a first well was added with 173.6 μL of culture medium and then added with 6.4 μL of antibacterial drug, and dilution was carried out by multiple proportions to a 7th well; and an 8th well was not added with the drug, but was reserved with 90 μL of culture medium to serve as a control with bacteria but no drug.
(§9) (4) In inoculation, 10 μL of bacterial solution was added into the 1st to 8th wells (a concentration of the bacterial solution in each well was about 1.0×10^6 CFU/mL). Results were judged after 72 hours of culture. Drug concentrations from the 1st to 7th wells were 64 μg/mL, 32 μg/mL, 16 μg/mL, 8 μg/mL, 4 μg/mL, 2 μg/mL, and 1 μg/mL respectively.
(§10) (5) In result judgment, a lowest drug concentration capable of completely inhibiting the growth of bacteria in the wells was MIC. The test was only meaningful when the bacteria in the 8th well of the positive control well (without antibiotics) grew obviously. When there was a single drift in a microdilution method, a highest drug concentration capable of inhibiting the growth of bacteria should be recorded. If there were many drifts, the results should not be reported, and the test should be repeated. Each drug was tested repeatedly for 3 times.

The subject of a further data set is Candida albicans C5. The data set is described as above.
Excerpt: as §5, §6, §7, §8, §9, §10

Data set [3] has as its system lung cancer cell line A549. The settings on record: for IC50: 72 hours, CCK-8, read-out: IC50 ± SD, A549. Here is the method:
as §1, §2, §3, §4

The test system of data set [4] is pancreatic cancer cell line MIA PaCa-2. To be noted: for IC50: 72 hours, CCK-8, read-out: IC50 ± SD, MIA PaCa-2. Here is the method: as §1, §2, §3, §4
The subject of data set [5] is Helicobacter pylori H. pylori G27. Kind of data set: Determination of MIC (microdilution). The settings on record: 72 hours of culture. The protocol:
as §5
(§11) Colombian liquid culture medium: 29.0 g of Colombian liquid culture medium was accurately weighed, heated, and dissolved in 1000 mL of double distilled water, and the culture medium was subjected to autoclaved sterilization at 121° C. for 15 minutes after being completely dissolved for later use.
(§12) Colombian blood agar solid culture medium: 39.0 g of Colombian blood agar solid culture medium was accurately weighed, heated, and dissolved in 1000 mL of double distilled water, and the culture medium was subjected to autoclaved sterilization at 121° C. for 15 minutes after being completely dissolved, naturally cooled to about 50° C. after the autoclaved sterilization, quickly added with 5% sterile deflbrinated sheep blood, mixed evenly, and then poured into a sterile dish while the mixture was hot.
(§13) Standard strains of Helicobacter pylori were taken out of a refrigerator at −80° C. and placed at room temperature, 200 μL of standard strains were accurately sucked, transferred to a solid culture medium, and spread with an L-shaped glass rod, a culture dish loaded with the strains was put into a culture bag, then an AnaeroPack was put into the culture bag, and the culture bag was quickly sealed and then put into a constant-temperature incubator at 37° C. to culture the strains for 72 hours. After the end of culture, the Helicobacter pylori was identified first, then a bacterial lawn on the solid culture medium was scraped off, and the bacterial lawn was transferred into 50 mL of liquid culture medium to serve as an original bacterial solution.
as §7, §8
(§14) (3) In preparation of bacterial solution, the Helicobacter pylori growing at a logarithmic phase on a solid plate was made into a bacterial suspension with a BHI culture medium, an OD600 value of concentration of the bacterial suspension was adjusted to be 0.3 (1×10^8 CFU/mL), and then the bacterial suspension was diluted 10 times to reach 1×10^7 CFU/mL for later use.
as §9, §10

The test system of data set [6] is Helicobacter pylori H. pylori 129. Put plainly: Determination of MIC (microdilution). The settings on record: 72 hours of culture, R = drug-resistant strain. The protocol:
as §5, §11, §12, §13, §7, §8, §14, §9, §10

Values after ≈ are worked out from the molar mass of the structure shown. Like-named read-outs stand apart in the source and are kept apart here.

Broadly, the IC50 is the concentration needed to halve the response being measured. As usually defined, the MIC is the lowest concentration that inhibits growth of the organism.

For `O=c1[nH]cc(F)c(=O)[nH]1` [5-Fluorouracil, reference compound], the IC50 came out at 4.82 ± 0.07 µM in data set [1] (Homo sapiens, HepG2) and 12.87 ± 0.04 µM in data set [2] (Homo sapiens, HT-29).
In the case of `C[C@@H]1[C@H](O)[C@@H](C)/C=C/C=C/C=C/C=C/C=C/C=C/C=C/[C@H](O[C@@H]2O[C@H](C)[C@@H](O)[C@H](N)[C@@H]2O)C[C@@H]2O[C@](O)(C[C@@H](O)C[C@@H](O)[C@H](O)CC[C@@H](O)C[C@@H](O)CC(=O)O[C@H]1C)C[C@H](O)[C@H]2C(=O)O` [AMB, amphotericin B, reference compound], the “AMB MIC, separate use” value stood at 2 µg/mL in the data set with Candida albicans SC5314 (SC5314, AMB alone) and 2 µg/mL with Candida albicans C5 (C5, AMB alone).
For `N.N.O=C([O-])C1(C(=O)[O-])CCC1.[Pt+2]` [Carboplatin, reference compound], the concentration for half-maximal inhibition (IC50) in data set [3] is over 40 µM.
With `COC(=O)C12CCC(C)(CC3C(=O)C45C(O)C3CCC4C34COC5(O)C(O)C3C(C)(C)CCC4O)C(C)=C1C1=CCC3C4(C)CC(O)C(O)C(C)(C)C4CCC3(C)C1(C)CC2` (centres unmarked) [Compound 1, Bisicacinol B], the “cytotoxic activity in words, HepG2” value in data set [1] was “strong activity”. Besides, the half-inhibitory concentration (IC50) came out at 14.84 ± 0.12 µM in data set [1], 14.95 ± 0.14 µM in data set [2], 4.2 ± 0.24 µM in data set [3] and 13.1 ± 0.18 µM in data set [4]. In data set [2], the “cytotoxic activity in words, HT-29” value is recorded as “strong activity”. In data set [3], the “cytotoxic activity in words, A549” value is reported as “strong activity”. Also, in data set [4], the “cytotoxic activity in words, MIA PaCa-2” value was “strong activity”. Also, the “inhibitory effect on growth in words, used separately” value is listed as “no significant inhibitory effect” in the data set with Candida albicans SC5314 (Candida albicans SC5314, compound alone) and “no significant inhibitory effect” with Candida albicans C5 (Candida albicans C5, compound alone). In addition, the “Compound 1 MIC, combined use” value with Candida albicans SC5314 (SC5314, combined with AMB) turned out to be 1 µg/mL; in the data set on Candida albicans C5 (C5, combined with AMB), 1 µg/mL. The “FICI index after combination” value is at most 0.078 with Candida albicans SC5314 (SC5314, compound 1 + AMB) and at most 0.078 in the data set with Candida albicans C5 (C5, compound 1 + AMB). Also, the “Compound 1 MIC, separate use” value in the data set on Candida albicans SC5314 (SC5314, compound 1 alone) was over 32 µg/mL; in the data set with Candida albicans C5 (C5, compound 1 alone), over 32 µg/mL. For the same molecule, the “MIC + 0.5 μg/ml AMB” value was found to be 1 µg/mL in the data set on Candida albicans SC5314 (SC5314, compound 1 with 0.5 μg/ml AMB) and 1 µg/mL in the data set on Candida albicans C5 (C5, compound 1 with 0.5 μg/ml AMB). Besides, the “MIC, H. pylori G27” value in data set [5] amounted to 16 µg/mL (≈ 18.8 µM). In addition, the “MIC, H. pylori 129” value in data set [6] amounted to 32 µg/mL (≈ 37.7 µM).
Take `COC(=O)C12CCC(C)(CC3C(=O)C45C(O)C3CCC4C34COC5(O)C(O)C3C(C)(C)CCC4O)C(C)=C1C1=CCC3C4(C)CC(O)C(O)C(C)(C)C4CCC3(C)C1(C)CC2` (centres unmarked) [Compound 2, Bisicacinol C]: the IC50 in data set [1] was over 40 µM; in data set [2], 33.35 ± 0.06 µM; in data set [3] it was 23.1 ± 0.12 µM; in data set [4], over 40 µM. Also, the “cytotoxic activity in words, HT-29” value in data set [2] is on record as “strong inhibitory activity”. Besides, in data set [3], the “cytotoxic activity in words, A549” value is reported as “strong inhibitory activity”. In addition, the “MIC, H. pylori G27” value in data set [5] was 16 µg/mL (≈ 18.8 µM). Further, in data set [6], the “MIC, H. pylori 129” value came out at 32 µg/mL (≈ 37.7 µM).
For `Cc1ncc([N+](=O)[O-])n1CCO` [MTZ, metronidazole, reference compound], the MIC in data set [5] (Helicobacter pylori) stood at 2 µg/mL (≈ 11.7 µM); in data set [6] (Helicobacter pylori), 8 µg/mL (≈ 46.7 µM).
